Assay results reported in PubChem BioAssay AID687005 (Broad Institute, 2013).
Records with an inconclusive call do not appear. The source made the active and inactive calls.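 Rule for the calls: active = Compounds that reduce signal, with fitted half-maximal dose at or under twice the top valid tested dose; inconclusive = Poor fit, or flat curve losing 30 to 70% of signal; inactive = Potency past limit, flat within 30%, or opposite direction.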

Assay: viability loss in HEK293T cells – cell-based, ATP luminescence, cherry-pick samples, cytotoxicity control, dose response (AID 687005)
Conditions: HEK293T viability, ATP luminescence (CellTiter-Glo), 48 h; at 23.5 µM (top of the series)

Row | Structure (SMILES) | activity change, negative = cytotoxicity
1 | C[C@H](CO)N1C[C@H](C)[C@H](CN(C)Cc2cccc(C(F)(F)F)c2)OCc2cnnn2CCCC1=O | 0.8% (inactive)
2 | CO[C@H]1CN(C)C(=O)c2cc(NC(=O)C3CCOCC3)ccc2OC[C@@H](C)NC[C@H]1C | 41% (inactive)
3 | CC(C)NC(=O)N1CC[C@@H]2[C@@H](CO)N(C)c3ccc(-c4cccc(F)c4)cc3[C@@H]21 | 40.1% (inactive)
4 | COC(=O)C1=C(C)N(Cc2ccccc2)C(=S)NC1c1ccc(Br)cc1 (stereo not drawn) | -9.89% (inactive)
5 | C[C@@H]1CN([C@@H](C)CO)C(=O)c2cc(NS(=O)(=O)c3ccccc3)ccc2O[C@H]1CN(C)C(=O)NC1CCCCC1 | -17.7% (inactive)

Same assay, conditions: HEK293T viability, ATP luminescence (CellTiter-Glo), 48 h; at 26 µM (top of the series)

Row | Structure (SMILES) | activity change, negative = cytotoxicity
6 | CC(C)NC(=O)N(C)C[C@@H]1OCCCC[C@H](C)Oc2ccc(NC(=O)Cc3ccccc3)cc2C(=O)N([C@H](C)CO)C[C@H]1C | 47.6% (inactive)
7 | CNC[C@H]1Oc2ccc(NC(=O)Cc3cn(C)c4ccccc34)cc2CC(=O)N([C@@H](C)CO)C[C@H]1C | 27% (inactive)
8 | CCC(=O)N1[C@H](CN(C)C(C)=O)[C@@H](c2ccc(C3=CCCCC3)cc2)[C@@H]1CO | -18.9% (inactive)
9 | C[C@@H]1CCCCO[C@@H](CN(C)C(=O)Nc2cccc3ccccc23)[C@@H](C)CN([C@H](C)CO)C(=O)c2cc(NS(=O)(=O)c3ccccc3)ccc2O1 | 6.51% (inactive)
10 | COc1ccccc1C#Cc1ccc2c(c1)O[C@H](CN(C)C(C)=O)[C@H](C)CN([C@@H](C)CO)S2(=O)=O | -7.15% (inactive)
11 | COCCNC(=O)C[C@@H]1C[C@H]2c3cc(NC(=O)C4CCC4)ccc3O[C@H]2[C@@H](CO)O1 | 3.65% (inactive)
12 | C[C@@H]1CCCCO[C@H](CN(C)C(=O)CCCN(C)C)[C@@H](C)CN([C@H](C)CO)C(=O)c2cc(NC(=O)Cc3ccccc3)ccc2O1 | 5.89% (inactive)
13 | CC(C)COc1ccc(CNC(=S)NCc2ccccc2)cc1 | -1.46% (inactive)
14 | O=C(CSc1ncnc2c1cnn2-c1ccc(F)cc1)NC1CCCC1 | -30.5% (inactive)
15 | CC1(C(=O)Nc2ccc3ccccc3c2)CCC(=O)N1C1CC1 (stereo not drawn) | -28.4% (inactive)
16 | COC(=O)C1=C(C)N(Cc2ccc(Cl)cc2)C(=S)NC1c1cccc(OC)c1 (stereo not drawn) | -34.3% (inactive)
17 | COc1cc(C(=O)Oc2ccccc2N)cc(OC)c1OC | 1.38% (inactive)
18 | CCCNC(=O)N(C)C[C@H]1Oc2ncc(C#CC3CCCCC3)cc2C(=O)N([C@@H](C)CO)C[C@@H]1C | 9.03% (inactive)
19 | C/C=C/c1ccc([C@@H]2[C@@H](CO)N3CCCCN(C(=O)Nc4ccc(OC)cc4)C[C@H]23)cc1 | 48.4% (inactive)
20 | O=C(CSc1ncnc2c1cnn2-c1ccccc1)Nc1ccc2c(c1)OCO2 | 2.1% (inactive)
21 | C[C@@H]1CN([C@H](C)CO)C(=O)c2cc(C3=CCCCC3)cnc2O[C@H]1CN(C)C(=O)Cc1cccnc1 | -11.9% (inactive)
22 | CC=Cc1ccc2n(c1=O)C[C@@H]1[C@@H](CO)[C@H](C(=O)N3CCc4ccccc4C3)N(C(=O)C3CC3)[C@H]21 (mixture of isomers) | -3.28% (inactive)
23 | N#Cc1ccc(C23CC4(C2)[C@H](CN(Cc2ccc(C(F)(F)F)cc2)[C@@H]4c2ccccc2)C3c2ccc(C(F)(F)F)cc2)cc1 (stereo partly drawn) | 10.4% (inactive)
24 | COc1cccc(S(=O)(=O)N2C[C@@H](O)COC[C@H]3O[C@H](CC(=O)Nc4ccccc4)CC[C@@H]32)c1 | -41.6% (inactive)
25 | CCCC(=O)N1CCCC1(C)C(=O)Nc1cc(C)ccc1C (stereo not drawn) | 3.87% (inactive)

Row | Structure (SMILES) | activity change, negative = cytotoxicity
26 | CCCC(=O)Nc1ccc2c(c1)OC[C@@H](C)N(Cc1ccccn1)C[C@@H](C)[C@H](OC)CN(C)C2=O | 25.3% (inactive)
27 | O=C([C@@H]1[C@@H](CO)[C@@H]2Cn3c(cccc3=O)[C@@H]2N1CCC(F)(F)F)N1CCCCC1 | 1.78% (inactive)
28 | COc1ccccc1CNC(=O)COc1ccc2c(c1)CCC2 | 28.6% (inactive)
29 | COC(=O)C1=C(C)N(Cc2ccccc2)C(=S)NC1c1ccc(Cl)cc1 (stereo not drawn) | -9.7% (inactive)
30 | CC(C)NC(=O)Nc1ccc2c(c1)C(=O)N([C@@H](C)CO)C[C@@H](C)[C@H](CN(C)C(=O)Cc1ccccc1)OCCCC[C@@H](C)O2 | 37.8% (inactive)
31 | C[C@@H]1CN([C@H](C)CO)C(=O)c2c(c3ccccc3n2C)-c2ccccc2CO[C@H]1CN(C)S(=O)(=O)c1cccs1 | 1.01% (inactive)
32 | CC(C)CC#Cc1cnc2c(c1)C(=O)N([C@H](C)CO)C[C@@H](C)[C@@H](CN(C)C(=O)c1ccc3c(c1)OCO3)O2 | 33.9% (inactive)
33 | O=C(C[C@@H]1C[C@@H]2c3cc(NC(=O)C4CCC4)ccc3O[C@@H]2[C@H](CO)O1)NCc1cccc(F)c1 | 3.17% (inactive)
34 | Cc1cccc(C)c1NC(=O)CN(C)C(=O)C1CCCCC1 | -11.8% (inactive)
35 | C#CCN(C(=O)c1ccc(OC2CCN(C(=O)CCOC)CC2)cc1)C1CCCCC1 | 8.74% (inactive)
36 | COC(=O)C1=C(C)N(Cc2ccc(F)cc2)C(=S)NC1c1cccc(OC)c1 (stereo not drawn) | 4.8% (inactive)
37 | CNC(=O)C[C@H]1CC[C@H]2[C@H](COc3ccc(NC(=O)Nc4ccccc4)cc3C(=O)N2C)O1 | -20.5% (inactive)
38 | C[C@H]1CN([C@@H](C)CO)C(=O)Cc2cc(NS(C)(=O)=O)ccc2O[C@@H]1CN(C)Cc1ccc(Cl)c(Cl)c1 | 11.7% (inactive)
39 | CNC(=O)C[C@H]1CC[C@H]2[C@@H](COc3ccc(NC(=O)Nc4ccccc4)cc3C(=O)N2C)O1 | 7.97% (inactive)
40 | COc1ccc(OC(C)C(=O)NC(C)c2ccccc2)cc1 (stereo not drawn) | -8.71% (inactive)
41 | C[C@@H]1CN([C@@H](C)CO)C(=O)c2cc(/C=C/c3ccccc3)cnc2O[C@@H]1CN(C)S(C)(=O)=O | 10.2% (inactive)
42 | C[C@@H]1CCCCO[C@@H](CN(C)C(=O)NC2CCCCC2)[C@H](C)CN([C@@H](C)CO)C(=O)c2cc(NS(=O)(=O)c3cn(C)cn3)ccc2O1 | 36.8% (inactive)
43 | C[C@H](CO)N1C[C@H](C)[C@H](CN(C)C(=O)Nc2cccc3ccccc23)Oc2ccc(NC(=O)Nc3ccccc3)cc2C1=O | 2.5% (inactive)
44 | CC(=O)NNC(=O)CSc1nnc(-c2ccccc2)c(-c2ccccc2)n1 | -4.35% (inactive)
45 | O=C(C[C@H]1CC[C@@H]2[C@H](COC[C@H](O)CN2CC2CCOCC2)O1)NCc1ccc(Cl)cc1 | 19% (inactive)

Row | Structure (SMILES) | activity change, negative = cytotoxicity
46 | CNC[C@@H]1Oc2cc(Br)ccc2S(=O)(=O)N([C@H](C)CO)C[C@H]1C | 28.3% (inactive)
47 | C[C@@H]1CN([C@@H](C)CO)C(=O)c2cc(NC(=O)C3CC3)ccc2O[C@H]1CN(C)CC1CCCCC1 | -17.8% (inactive)
48 | CC(C)NC(=O)Nc1ccc2c(c1)CC(=O)N([C@@H](C)CO)C[C@@H](C)[C@H](CN(C)C(=O)Nc1ccc3c(c1)OCO3)O2 | 50.2% (inactive)
49 | CCC(C)(C(=O)Nc1ccccc1C)N(C(=O)CNC(C)=O)c1ccc(C)cc1 (stereo not drawn) | -11.7% (inactive)
50 | CC(=O)N[C@H]1CC[C@H](CCNC(=O)C2CCC2)O[C@@H]1CO | 10.8% (inactive)
51 | C[C@@H]1CCCCO[C@H](CN(C)Cc2ccc3c(c2)OCO3)[C@H](C)CN([C@H](C)CO)C(=O)c2cc(NC(=O)Nc3cccc4ccccc34)ccc2O1 | 171% (inactive)
52 | CO[C@@H]1CN(C)C(=O)c2cc(NC(=O)Nc3cccc(F)c3)ccc2OC[C@H](C)N(C)C[C@@H]1C | -0.56% (inactive)
53 | CNC[C@H]1Oc2ncc(C#CCC(C)C)cc2C(=O)N([C@H](C)CO)C[C@H]1C | 29% (inactive)
54 | CCC(=O)Nc1ccc2c(c1)C(=O)N(C)C[C@H](OC)[C@@H](C)CN[C@H](C)CO2 | 29.1% (inactive)
55 | CCCCNC(=S)N/N=C/c1ccc(C#N)cc1 | -29.9% (inactive)
56 | O=C(NC(=S)Nc1ccccc1N1CCOCC1)c1ccc(Br)cc1 | -8.37% (inactive)
57 | CC(C)NC(=O)Nc1ccc2c(c1)C(=O)N([C@@H](C)CO)C[C@@H](C)[C@H](CN(C)C(=O)c1ccncc1)OCCCC[C@H](C)O2 | 23.3% (inactive)
58 | CCC(=O)N1CCC1(C)C(=O)Nc1ccc(C)c(C)c1 (stereo not drawn) | -11.7% (inactive)
59 | O=C(Nc1cccc(F)c1)N[C@H]1CC[C@@H](CCNS(=O)(=O)c2cccc(Cl)c2)O[C@@H]1CO | -36.3% (inactive)
60 | CO[C@H]1CC[C@@H]2CCOc3c(C#N)cccc3C(=O)N(C)C[C@H](OC)[C@@H](C)C(=O)N(C)C[C@@H]1O2 | -0.939% (inactive)
61 | O=C(C[C@@H]1C=C[C@@H](NC(=O)Nc2cc(F)ccc2F)[C@H](CO)O1)NCCCN1CCOCC1 | 0.247% (inactive)
62 | COc1ccc(C(=O)NC(=S)Nc2ccccc2N2CCOCC2)cc1[N+](=O)[O-] | -32.3% (inactive)
63 | COc1ccc(CNC(=S)NCc2ccc(OC(C)C)cc2)cc1 | 19.2% (inactive)
64 | O=C(CSc1ncnc2c1cnn2-c1ccc(Cl)cc1)NCc1ccc2c(c1)OCO2 | -9.56% (inactive)
65 | C[C@H](CO)N1C[C@H](C)[C@@H](CN(C)C(=O)Nc2cccc3ccccc23)Oc2c(cccc2N(C)C)C1=O | 49.5% (inactive)

Same assay, conditions: HEK293T viability, ATP luminescence (CellTiter-Glo), 48 h; at 30 µM (top of the series)

Row | Structure (SMILES) | activity change, negative = cytotoxicity
66 | COC(=O)C1=C(C)N(CC(C)C)C(=S)NC1c1cccc(F)c1 (stereo not drawn) | -13.7% (inactive)

Same assay, conditions: HEK293T viability, ATP luminescence (CellTiter-Glo), 48 h; at 38 µM (top of the series)

Row | Structure (SMILES) | activity change, negative = cytotoxicity
67 | Cc1ccc(NC(=O)C2(C)CCN2C(=O)CC2CCCC2)cc1 (stereo not drawn) | -16.5% (inactive)

Same assay, conditions: HEK293T viability, ATP luminescence (CellTiter-Glo), 48 h; at 42 µM (top of the series)

Row | Structure (SMILES) | activity change, negative = cytotoxicity
68 | CCCC(=O)N1CCCC1(C)C(=O)Nc1cc(C)ccc1C (stereo not drawn) | -20.6% (inactive)
